Source: patent US7524964B2, “Tetrahydrothiopyrano pyrazole cannabinoid modulators” (Janssen Pharmaceutica NV, priority 2005, dated 2009)
Where “and” joins values, the source holds several entries; their conditions need not be identical. Equal values may be shown once.

Tests used:
human CB1 receptor [1] = target: T1, human CB1 receptor (Homo sapiens, UniProt P21554); assay: Binding assay, cannabinoid CB1 receptor ([3H]-CP-55,940 displacement); set-up: expressed in transfected cells; host or cells: SK-N-MC cells, pcDNA3 CB-1 (human), semi-purified membranes; details: for inhibition at 1 µM: test concentration 1 μM (superscript b); for inhibition at 1 µM / inhibition at 10 µM / inhibition at 0.2 µM: read-out: CB1 binding percent inhibition; for inhibition at 0.2 µM: test concentration 0.2 μM (superscript a)
T1 sequence (P21554 whole entry): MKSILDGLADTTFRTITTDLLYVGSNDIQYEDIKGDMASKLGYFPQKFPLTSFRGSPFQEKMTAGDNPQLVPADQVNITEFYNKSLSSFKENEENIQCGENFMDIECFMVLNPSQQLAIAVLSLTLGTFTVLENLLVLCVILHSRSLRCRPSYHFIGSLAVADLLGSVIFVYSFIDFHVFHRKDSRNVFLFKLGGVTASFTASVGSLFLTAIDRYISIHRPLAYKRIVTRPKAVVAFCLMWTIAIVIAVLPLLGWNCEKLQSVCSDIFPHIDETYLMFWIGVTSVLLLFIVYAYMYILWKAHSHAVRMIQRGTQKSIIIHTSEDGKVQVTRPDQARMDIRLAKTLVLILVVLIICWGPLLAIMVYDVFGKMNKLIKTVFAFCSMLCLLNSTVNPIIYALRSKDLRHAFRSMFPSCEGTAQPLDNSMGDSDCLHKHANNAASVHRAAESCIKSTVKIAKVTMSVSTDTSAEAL
Method in brief: (§1)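 Membranes from SK-N-MC cells stably expressing human CB-1 or CB-2 were incubated 90 min at 30° C with 0.2 nM [3H]-CP-55,940 in pH 7.5 Tris buffer with fatty-acid-free BSA; 10 uM WIN 55,212 defined non-specific binding. Filter-bound counts gave IC50 by linear regression, or percent inhibition at 0.2, 1 or 10 μM.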

human CB1 receptor [2] = target: T1, human CB1 receptor; assay: Functional cell-based assay, CB1 receptor mediated change in CRE β-gal expression (adenylate cyclase activity); set-up: expressed in transfected cells; host or cells: SK-NC cells [sic], pcDNA3-CRE β-gal and pcDNA3 CB-1 (human); details: for inhibition at 1 µM: test concentration 1 μM, where an EC50 was not obtained, read-out: CB1 functional percent inhibition
Excerpt: Functional Cell-Based Assay for CB1 or CB2 Agonist and Inverse Agonist Effects on Intra-Cellular Adenylate Cyclase Activity
The CB1 and CB2 receptors are G-protein coupled receptors (GPCR), which influence cell function via the Gi-protein. These receptors modulate the activity of intracellular adenylate cyclase, which in turn produces the intracellular signal messenger cyclic-AMP (cAMP).
At baseline, or during non-ligand bound conditions, these receptors are constitutively active and tonically suppress adenylate cyclase activity. The binding of an agonist causes further receptor activation and produces additional suppression of adenylate cyclase activity. The binding of an inverse agonist inhibits the constitutive activity of the receptors and results in an increase in adenylate cyclase activity.
By monitoring intracellular adenylate cyclase activity, the ability of compounds to act as agonists or inverse agonists can be determined.
Test compounds were evaluated in SK-NC cells which, using standard transfection procedures, were stably transfected with human cDNA for pcDNA3-CRE β-gal and pcDNA3 CB-1 (human) or pcDNA3 CB-2 (human). By expressing CRE β-gal, the cells produced β-galactosidase in response to CRE promoter activation by cAMP. Cells expressing CRE β-gal and either the human CB1 or CB2 receptor will produce less β-galactosidase when treated with a CB1/CB2 agonist and will produce more β-galactosidase when treated with a CB1/CB2 inverse agonist.
The cells were grown in 96-well plates under standard cell culture conditions at 37° C. in a 5% CO2 atmosphere. After 3 days, the media was removed and a test compound in media (wherein the media was supplemented with 2 mM L-glutamine, […] sodium pyruvate, 0.1% low fatty acid FBS (fetal bovine serum) and antibiotics) was added to the cell. The plates were incubated for 30 minutes at 37° C. and the plate cells were then treated with forskolin over a 4-6 hour period, then washed and lysed. The β-galactosidase activity was quantitated using commercially available kit reagents (Promega Corp. Madison, Wis.) and a Vmax Plate Reader (Molecular Devices, Inc).
For cells expressing CRE β-gal and the CB1 receptor, CB1 agonists reduced β-galactosidase activity in a dose-dependent manner and CB1 inverse agonists increased β-galactosidase activity in a dose-dependent manner.
The change in β-galactosidase activity was determined by setting a vehicle treated cell's activity value at 100% and expressing the β-galactosidase activity measured in a corresponding compound treated cell as a percent of the vehicle treated cell activity.
The EC50 and IC50 values for compounds tested were calculated by linear regression and were obtained from studies in which varying compound concentrations were used.
The EC50 values for compounds tested were calculated by linear regression and were obtained from studies in which varying compound concentrations were used. Where an EC50 was not obtained, test results are provided as percent inhibition at a test concentration of 1 μM. ^aTest value in IC50; indicates agonist activity.

human CB-2 receptor = target: T2, human CB-2 receptor (Homo sapiens, UniProt P34972); assay: Binding assay, cannabinoid CB2 receptor ([3H]-CP-55,940 displacement); details: for inhibition at 1 µM: test concentration 1 μM (superscript b); for inhibition at 0.2 µM: test concentration 0.2 μM (superscript a)
T2 construct: expressed in transfected cells; host or cells: SK-N-MC cells, pcDNA3 CB-2 (human), semi-purified membranes
T2 sequence (P34972 whole entry): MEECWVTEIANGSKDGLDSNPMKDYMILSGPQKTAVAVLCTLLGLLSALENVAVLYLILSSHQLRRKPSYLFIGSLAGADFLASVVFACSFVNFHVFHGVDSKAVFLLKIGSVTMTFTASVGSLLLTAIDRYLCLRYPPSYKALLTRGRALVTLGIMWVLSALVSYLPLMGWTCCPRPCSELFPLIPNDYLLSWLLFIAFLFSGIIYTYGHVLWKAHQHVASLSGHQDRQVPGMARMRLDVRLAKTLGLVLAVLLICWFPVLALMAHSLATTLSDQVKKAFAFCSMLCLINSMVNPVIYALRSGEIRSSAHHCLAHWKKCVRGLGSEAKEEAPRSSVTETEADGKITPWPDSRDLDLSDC
Method in brief: as §1

[3] = read-out: CB2 binding percent inhibition
[4] = test concentration 10 μM (superscript c)

## CC(NS(=O)(=O)/C=C/c1nn(Cc2ccccc2)c2c1C[S+]([O-])CC2)C1CCCCC1 (centres unmarked) [Cpd 25, (E)-2-(1-benzyl-5-oxo-4,5,6,7-tetrahydro-1H-5λ^4-thiopyrano[4,3-c]pyrazol-3-yl)-ethenesulfonic acid (1-cyclohexyl-ethyl)amide]
Human CB1 receptor [1]; test concentration 10 μM (superscript c), 10 µM
  CB1 binding percent inhibition: 0% and 6%
Human CB1 receptor [2]
  inhibition at 1 µM: 1%

## C[C@@H](NC(=O)c1nn(Cc2ccccc2)c2c1CS(=O)(=O)CC2)c1ccccc1 [Cpd 13, 1-benzyl-5,5-dioxo-4,5,6,7-tetrahydro-1H-5λ^6-thiopyrano[4,3-c]pyrazole-3-carboxylic acid [(1R)-1-phenyl-ethyl]-amide]
Human CB-2 receptor; [3]
  inhibition at 1 µM: 55%
Human CB1 receptor [1]
  inhibition at 1 µM: 38%
Human CB1 receptor [2]
  EC50: 7880 nM

## C[C@@H](NC(=O)c1nn(Cc2ccccc2)c2c1CSCC2)c1ccccc1 [Cpd 1, 1-benzyl-1,4,6,7-tetrahydro-thiopyrano[4,3-c]pyrazole-3-carboxylic acid [(1R)-1-phenyl-ethyl]-amide]
Human CB-2 receptor
  IC50: 62 nM
Human CB1 receptor [1]
  IC50: 160 nM
Human CB1 receptor [2]
  IC50: 70 nM

## CC12CCC(C1)C(C)(C)C2NC(=O)c1nn(Cc2ccccc2)c2c1CS(=O)(=O)CC2 (centres unmarked) [Cpd 20, 1-benzyl-5,5-dioxo-4,5,6,7-tetrahydro-1H-5λ^6-thiopyrano[4,3-c]pyrazole-3-carboxylic acid (1,3,3-trimethyl-bicyclo[2.2.1]hept-2-yl)-amide]
Human CB-2 receptor
  IC50: 5 nM
Human CB1 receptor [1]
  IC50: 22 nM
Human CB1 receptor [2]
  IC50: 60 nM

## C[C@H](NS(=O)(=O)/C=C/c1nn(Cc2ccccc2)c2c1CSCC2)c1ccccc1 [Cpd 3, (E)-2-(1-benzyl-1,4,6,7-tetrahydro-thiopyrano[4-3-c]pyrazol-3-yl)-ethenesulfonic acid [(1S)-1-phenyl-ethyl]-amide]
Human CB-2 receptor; [3]
  inhibition at 1 µM: 74%
Human CB1 receptor [1]
  inhibition at 1 µM: 23%
Human CB1 receptor [2]
  inhibition at 1 µM: 17%

## C[C@@H](NC(=O)/C=C/c1nn(Cc2ccccc2)c2c1CSCC2)c1ccccc1 [Cpd 33, (2E)-3-(1-benzyl-1,4,6,7-tetrahydro-thiopyrano[4,3-c]pyrazol-3-yl)-N-[(1R)-1-phenyl-ethyl]-acrylamide]
Human CB-2 receptor
  IC50: 6800 nM
Human CB1 receptor [1]
  inhibition at 1 µM: 35%
Human CB1 receptor [1]; [4]
  inhibition at 10 µM: 9%
Human CB1 receptor [2]
  inhibition at 1 µM: 24%

## CC12CCC(C1)C(C)(C)C2NC(=O)c1nn(Cc2ccccc2)c2c1C[S+]([O-])CC2 (centres unmarked) [Cpd 21, 1-benzyl-5-oxo-4,5,6,7-tetrahydro-1H-5λ^4-thiopyrano[4,3-c]pyrazole-3-carboxylic acid (1,3,3-trimethyl-bicyclo[2.2.1]hept-2-yl)-amide]
Human CB-2 receptor
  IC50: 56 nM
Human CB1 receptor [1]
  inhibition at 1 µM: 53%
Human CB1 receptor [2]
  IC50: 6300 nM

## CC12CCC(C1)C(C)(C)C2NC(=O)c1nn(Cc2ccccc2)c2c1CSCC2 (centres unmarked) [Cpd 19, 1-benzyl-1,4,6,7-tetrahydro-thiopyrano[4,3-c]pyrazole-3-carboxylic acid (1,3,3-trimethyl-bicyclo[2.2.1]hept-2-yl)-amide]
Human CB-2 receptor
  IC50: 0.7 nM
Human CB1 receptor [1]
  IC50: 5 nM
Human CB1 receptor [2]
  IC50: 30 nM

## C[C@@H](NS(=O)(=O)/C=C/c1c2c(nn1Cc1ccccc1)CCS(=O)(=O)C2)c1ccccc1 [Cpd 4, (E)-2-(2-benzyl-5,5-dioxo-4,5,6,7-tetrahydro-2H-5λ^6-thiopyrano[4,3-c]pyrazol-3-yl)-ethenesulfonic acid [(1R)-1-phenyl-ethyl]-amide]
Human CB-2 receptor; [3]
  inhibition at 1 µM: 0%
Human CB1 receptor [1]
  inhibition at 1 µM: 12%

## C[C@@H](NC(=O)/C=C/c1nn(Cc2ccccc2)c2c1C[S+]([O-])CC2)c1ccccc1 (stereo partly drawn) [Cpd 35, (2E)-3-(1-benzyl-5-oxo-4,5,6,7-tetrahydro-1H-5λ^4-thiopyrano[4,3-c]pyrazol-3-yl)-N-[(1R)-1-phenyl-ethyl]-acrylamide]
Human CB-2 receptor; test concentration 10 μM (superscript c), read-out: CB2 binding percent inhibition
  inhibition at 10 µM: 28%
Human CB1 receptor [1]; [4]
  inhibition at 10 µM: 4%

## O=C(NCc1ccccn1)c1nn(-c2ccc(Cl)cc2Cl)c2c1CSC/C2=C\c1ccc(F)cc1 [Cpd 72, (7Z)-1-(2,4-dichloro-phenyl)-7-(4-fluoro-benzylidene)-1,4,6,7-tetrahydro-thiopyrano[4,3-c]pyrazole-3-carboxylic acid (pyridin-2-ylmethyl)-amide]
Human CB-2 receptor; [3]
  inhibition at 0.2 µM: 10%
Human CB1 receptor [1]
  inhibition at 0.2 µM: 48%

## C[C@@H](NC(=O)c1c2c(nn1-c1ccc(Cl)cc1Cl)/C(=C/c1ccc(F)cc1)CS(=O)(=O)C2)C1CCCCC1 [Cpd 84, (7Z)-2-(2,4-dichloro-phenyl)-7-(4-fluoro-benzylidene)-5,5-dioxo-4,5,6,7-tetrahydro-2H-5λ^6-thiopyrano[4,3-c]pyrazole-3-carboxylic acid [(1R)-1-cyclohexyl-ethyl]-amide]
Human CB-2 receptor; [3]
  inhibition at 0.2 µM: 17%
Human CB1 receptor [1]
  IC50: 2 nM

## C[C@H](NC(=O)c1nn(-c2ccc(Cl)cc2Cl)c2c1CS(=O)(=O)C/C2=C\c1ccc(F)cc1)c1ccccc1 [Cpd 65, (7Z)-1-(2,4-dichloro-phenyl)-7-(4-fluoro-benzylidene)-5,5-dioxo-4,5,6,7-tetrahydro-1H-5λ^6-thiopyrano[4,3-c]pyrazole-3-carboxylic acid [(1S)-1-phenyl-ethyl]-amide]
Human CB-2 receptor; [3]
  inhibition at 0.2 µM: 17%
Human CB1 receptor [1]
  IC50: 5 nM

## O=C(NN1CCCCC1)c1nn(-c2ccc(Cl)cc2Cl)c2c1CS(=O)(=O)C/C2=C\c1ccc(F)cc1 [Cpd 81, (7Z)-1-(2,4-dichloro-phenyl)-7-(4-fluoro-benzylidene)-5,5-dioxo-4,5,6,7-tetrahydro-1H-5λ^6-thiopyrano[4,3-c]pyrazole-3-carboxylic acid piperidin-1-ylamide]
Human CB-2 receptor; [3]
  inhibition at 0.2 µM: 24%
Human CB1 receptor [1]
  IC50: 32 nM

## C[C@H](NS(=O)(=O)/C=C/c1nn(Cc2ccccc2)c2c1CSCC2)C1CCCCC1 [Cpd 12, (E)-2-(1-benzyl-1,4,6,7-tetrahydro-thiopyrano[4,3-c]pyrazol-3-yl)-ethenesulfonic acid [(1S)-1-cyclohexyl-ethyl]-amide]
Human CB-2 receptor; [3]
  inhibition at 1 µM: 42%
Human CB1 receptor [1]
  inhibition at 1 µM: 15%

## O=C(NN1CCCCC1)c1nn(-c2ccc(Cl)cc2Cl)c2c1CS(=O)(=O)C/C2=C\c1ccc(Cl)o1 [Cpd 119, (7Z)-7-(5-chloro-furan-2-ylmethylene)-1-(2,4-dichloro-phenyl)-5,5-dioxo-4,5,6,7-tetrahydro-1H-5λ^6-thiopyrano[4,3-c]pyrazole-3-carboxylic acid piperidin-1-ylamide]
Human CB-2 receptor; [3]
  inhibition at 0.2 µM: 17%
Human CB1 receptor [1]
  IC50: 81 nM

## C[C@@H](NS(=O)(=O)/C=C/c1nn(Cc2ccccc2)c2c1CS(=O)(=O)CC2)C1CCCCC1 [Cpd 14, (E)-2-(1-benzyl-5,5-dioxo-4,5,6,7-tetrahydro-1H-5λ^6-thiopyrano[4,3-c]pyrazol-3-yl)-ethenesulfonic acid [(1R)-1-cyclohexyl-ethyl]-amide]
Human CB-2 receptor; [3]
  inhibition at 1 µM: 0%
Human CB1 receptor [1]
  inhibition at 1 µM: 0%

## C[C@@H](NS(=O)(=O)/C=C/c1n[nH]c2c1CSCC2Cc1cccc(F)c1)C1CCCCC1 (stereo partly drawn) [Cpd 48, (E)-2-[7-(3-fluoro-benzyl)-1,4,6,7-tetrahydro-thiopyrano[4,3-c]pyrazol-3-yl]-ethenesulfonic acid [(1R)-1-cyclohexyl-ethyl]-amide]
Human CB-2 receptor; [3]
  inhibition at 0.2 µM: 11%
Human CB1 receptor [1]
  inhibition at 0.2 µM: 15%
